# Test results from PMC8480901 (PLoS ONE, 2021).
# Where “and” joins values, the source holds several entries; their conditions need not be identical. Equal entries are not always repeated.
# System: J774.2 mouse macrophages
# Assay: LPS-induced cytokine and chemokine levels in J774.2 mouse macrophage cell supernatant (ELISA)
# Assay type: cell-based
# Conditions: LPS; for CCl2, % reduction / CCl2, Mean / GM-CSF % reduction / GM-CSF Mean / IL-1β % reduction / IL-1β Mean / IL-6 % reduction / IL-6 Mean / TNF-α % reduction / TNF-α Mean / CCl2 / CXCL1 / GM-CSF / IL-1β / IL-6 / TNF-α: J774.2 supernatant; for CCl2 / CXCL1 / GM-CSF / IL-1β / IL-6 / TNF-α / CXCL2 / MMP9: individual replicate; for CXCL2 / MMP9: J774.2 cells
smiles,measurement,setting,value
CC[C@H]1OC(=O)[C@H](C)[C@@H](O[C@H]2C[C@@](C)(OC)[C@@H](O)[C@H](C)O2)[C@H](C)[C@@H](O[C@@H]2O[C@H](C)C[C@H](N(C)C)[C@H]2O)[C@](C)(O)C[C@@H](C)CN(C)[C@H](C)[C@@H](O)[C@]1(C)O [Azithromycin],"CCl2, % reduction",1 µM,17%
same,"CCl2, Mean",1 µM,29990 pg/mL
same,GM-CSF % reduction,1 µM,67%
same,GM-CSF Mean,1 µM,467 pg/mL
same,IL-1β % reduction,1 µM,4.32%
same,IL-1β Mean,1 µM,183 pg/mL
same,IL-6 % reduction,1 µM,10%
same,IL-6 Mean,1 µM,69772 pg/mL
same,TNF-α % reduction,1 µM,-11%
same,TNF-α Mean,1 µM,1515 pg/mL
same,CCl2,1 µM,27895.3 pg/mL and 32084.6 pg/mL
same,CXCL1,1 µM,29.3 pg/mL and 31.2 pg/mL
same,GM-CSF,1 µM,431.5 pg/mL and 502.0 pg/mL
same,IL-1β,1 µM,188.28 pg/mL and 176.943 pg/mL
same,IL-6,1 µM,65142 pg/mL and 74401 pg/mL
same,TNF-α,1 µM,1479.7 pg/mL and 1551.1 pg/mL
same,"CCl2, % reduction",3 µM,4%
same,"CCl2, Mean",3 µM,34644 pg/mL
same,GM-CSF % reduction,3 µM,57%
same,GM-CSF Mean,3 µM,606 pg/mL
same,IL-1β % reduction,3 µM,-7%
same,IL-1β Mean,3 µM,204 pg/mL
same,IL-6 % reduction,3 µM,7%
same,IL-6 Mean,3 µM,71996 pg/mL
same,TNF-α % reduction,3 µM,-31%
same,TNF-α Mean,3 µM,1780 pg/mL
same,CCl2,3 µM,38396.7 pg/mL and 30890.3 pg/mL
same,CXCL1,3 µM,37.9 pg/mL and 28.5 pg/mL
same,GM-CSF,3 µM,728.6 pg/mL and 484.1 pg/mL
same,IL-1β,3 µM,204.824 pg/mL and 203.959 pg/mL
same,IL-6,3 µM,78966 pg/mL and 65026 pg/mL
same,TNF-α,3 µM,1995.5 pg/mL and 1564.5 pg/mL
same,"CCl2, % reduction",10 µM,9%
same,"CCl2, Mean",10 µM,32971 pg/mL
same,GM-CSF % reduction,10 µM,52%
same,GM-CSF Mean,10 µM,674 pg/mL
same,IL-1β % reduction,10 µM,1.15%
same,IL-1β Mean,10 µM,189 pg/mL
same,IL-6 % reduction,10 µM,15%
same,IL-6 Mean,10 µM,65894 pg/mL
same,TNF-α % reduction,10 µM,-25%
same,TNF-α Mean,10 µM,1709 pg/mL
same,CCl2,10 µM,34921.6 pg/mL and 31021.1 pg/mL
same,CXCL1,10 µM,42.9 pg/mL and 34.6 pg/mL
same,GM-CSF,10 µM,752.0 pg/mL and 595.8 pg/mL
same,IL-1β,10 µM,185.693 pg/mL and 191.532 pg/mL
same,IL-6,10 µM,62169 pg/mL and 69619 pg/mL
same,TNF-α,10 µM,1793.0 pg/mL and 1624.6 pg/mL
same,"CCl2, % reduction",30 µM,-14%
same,"CCl2, Mean",30 µM,40819 pg/mL
same,GM-CSF % reduction,30 µM,66%
same,GM-CSF Mean,30 µM,483 pg/mL
same,IL-1β % reduction,30 µM,28%
same,IL-1β Mean,30 µM,138 pg/mL
same,IL-6 % reduction,30 µM,43%
same,IL-6 Mean,30 µM,44169 pg/mL
same,TNF-α % reduction,30 µM,-15%
same,TNF-α Mean,30 µM,1566 pg/mL
same,CCl2,30 µM,40980.3 pg/mL and 40657.2 pg/mL
same,CXCL1,30 µM,68.6 pg/mL and 51.5 pg/mL
same,GM-CSF,30 µM,510.8 pg/mL and 455.1 pg/mL
same,IL-1β,30 µM,129.379 pg/mL and 146.376 pg/mL
same,IL-6,30 µM,40788 pg/mL and 47550 pg/mL
same,TNF-α,30 µM,1637.1 pg/mL and 1494.0 pg/mL
same,"CCl2, % reduction",100 µM,12%
same,"CCl2, Mean",100 µM,31879 pg/mL
same,GM-CSF % reduction,100 µM,76%
same,GM-CSF Mean,100 µM,343 pg/mL
same,IL-1β % reduction,100 µM,36%
same,IL-1β Mean,100 µM,122 pg/mL
same,IL-6 % reduction,100 µM,69%
same,IL-6 Mean,100 µM,24231 pg/mL
same,TNF-α % reduction,100 µM,-21%
same,TNF-α Mean,100 µM,1656 pg/mL
same,CCl2,100 µM,33824.3 pg/mL and 29933.1 pg/mL
same,CXCL1,100 µM,66.2 pg/mL and 50.6 pg/mL
same,GM-CSF,100 µM,399.7 pg/mL and 287.0 pg/mL
same,IL-1β,100 µM,120.112 pg/mL and 124.217 pg/mL
same,IL-6,100 µM,25573 pg/mL and 22888 pg/mL
same,TNF-α,100 µM,1818.4 pg/mL and 1493.5 pg/mL
same,CXCL2,compound 0.03 µM,14544.8 pg/mL and 27111.4 pg/mL
same,MMP9,compound 0.03 µM,1137.13 pg/mL and 1348.53 pg/mL
same,CXCL2,compound 0.1 µM,14262.2 pg/mL and 26368.8 pg/mL
same,MMP9,compound 0.1 µM,973.296 pg/mL and 1170.61 pg/mL
same,CXCL2,compound 0.3 µM,19194.7 pg/mL and 27003.7 pg/mL
same,MMP9,compound 0.3 µM,981.336 pg/mL and 1072.64 pg/mL
same,CXCL2,compound 1 µM,28271.6 pg/mL and 28293.6 pg/mL
same,MMP9,compound 1 µM,1115.62 pg/mL and 1010.37 pg/mL
same,CXCL2,compound 3 µM,17053.3 pg/mL and 14683.3 pg/mL
same,MMP9,compound 3 µM,1120.5 pg/mL
same,CXCL2,compound 10 µM,20008.2 pg/mL and 16019.2 pg/mL
same,MMP9,compound 10 µM,846.885 pg/mL and 873.775 pg/mL
same,CXCL2,compound 30 µM,23084.4 pg/mL and 24875.0 pg/mL
same,MMP9,compound 30 µM,575.954 pg/mL and 501.629 pg/mL
same,CXCL2,compound 100 µM,19137.4 pg/mL and 23402.0 pg/mL
same,MMP9,compound 100 µM,340.616 pg/mL and 323.365 pg/mL
